# Target: Beta-3 Adrenergic Receptor (Homo sapiens (Human), UniProt P13945)
# Assay: HTRF cAMP antagonist assay (IC50 determination)
# Type: cell-based
# Conditions: CHO-K1 cells stably expressing recombinant receptor; antagonism of isoproterenol at EC90; cAMP readout
# How it was run: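 Antagonist mode: isoproterenol at its predetermined EC90 added after compound to recombinant CHO-K1 cells in IBMX-containing PBS, 1 h, room temperature. Compounds tested as 5-fold, 10-point dilutions, top final typically 10 or 100 μM. HTRF signal converted to cAMP via standard curve, giving IC50.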
# Sequence of Beta-3 Adrenergic Receptor (P13945 whole entry, species assumed): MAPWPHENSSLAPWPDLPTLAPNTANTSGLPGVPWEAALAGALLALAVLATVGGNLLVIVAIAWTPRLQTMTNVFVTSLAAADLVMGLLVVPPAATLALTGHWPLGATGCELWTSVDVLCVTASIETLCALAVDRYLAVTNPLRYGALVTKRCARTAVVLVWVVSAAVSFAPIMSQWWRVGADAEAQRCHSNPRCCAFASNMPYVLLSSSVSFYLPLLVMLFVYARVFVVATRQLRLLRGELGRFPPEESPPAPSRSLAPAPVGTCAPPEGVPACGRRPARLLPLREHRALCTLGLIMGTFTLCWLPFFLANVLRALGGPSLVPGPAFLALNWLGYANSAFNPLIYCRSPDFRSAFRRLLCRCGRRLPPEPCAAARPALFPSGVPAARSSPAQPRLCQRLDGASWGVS
row,IC50 [µM],SMILES
1,0.18,"CC(C)(CN)c1ccc(-c2cccc(S(=O)(=O)N3CCC4(CC3)C[C@@H](NC[C@H](O)COc3cccc(S(=O)(=O)C5(CO)CC5)c3)CO4)c2)cc1 [Compound 181, (S)-1-((R)-8-(4′-(1-amino-2-methylpropan-2-yl)biphenyl-3-ylsulfonyl)-1-oxa-8-azaspiro[4.5]decan-3-ylamino)-3-(3-(1-(hydroxymethyl)cyclopropylsulfonyl)phenoxy)propan-2-ol]"
2,0.0247,"NCc1ccc(-c2cccc(S(=O)(=O)N3CCC4(CC3)C[C@H](NC[C@H](O)COc3cccc(S(=O)(=O)C5(CO)CC5)c3)CO4)c2)cc1F [Compound 182, (S)-1-((S)-8-(4′-(aminomethyl)-3′-fluorobiphenyl-3-ylsulfonyl)-1-oxa-8-azaspiro[4.5]decan-3-ylamino)-3-(3-(1-(hydroxymethyl)cyclopropylsulfonyl)phenoxy)propan-2-ol]"
3,1.6,"O=C(O)CS(=O)(=O)c1cccc(OC[C@@H](O)CN[C@H]2COC3(CCN(S(=O)(=O)c4cnc5ccccc5c4)CC3)C2)c1 [Compound 183, 2-(3-((S)-2-hydroxy-3-((R)-8-(quinolin-3-ylsulfonyl)-1-oxa-8-azaspiro[4.5]decan-3-ylamino)propoxy)phenylsulfonyl)acetic acid]"
4,0.0267,"NC1(c2ccc(-c3cccc(S(=O)(=O)N4CCC5(CC4)C[C@H](NC[C@H](O)COc4cccc(S(=O)(=O)C6(CO)CC6)c4)CO5)c3)cc2)CC1 [Compound 184, (S)-1-((S)-8-(4′-(1-aminocyclopropyl)biphenyl-3-ylsulfonyl)-1-oxa-8-azaspiro[4.5]decan-3-ylamino)-3-(3-(1-(hydroxymethyl)cyclopropylsulfonyl)phenoxy)propan-2-ol]"
5,0.258,"O=S(=O)(c1cncc(Br)c1)N1CCC2(CC1)C[C@@H](NC[C@H](O)COc1cccc(S(=O)(=O)C3(CO)CC3)c1)CO2 [Compound 185, (S)-1-((R)-8-(5-bromopyridin-3-ylsulfonyl)-1-oxa-8-azaspiro[4.5]decan-3-ylamino)-3-(3-(1-(hydroxymethyl)cyclopropylsulfonyl)phenoxy)propan-2-ol]"
6,0.0786,"O=S(=O)(c1cncc(Br)c1)N1CCC2(CC1)C[C@H](NC[C@H](O)COc1cccc(S(=O)(=O)C3(CO)CC3)c1)CO2 [Compound 186, (S)-1-((S)-8-(5-bromopyridin-3-ylsulfonyl)-1-oxa-8-azaspiro[4.5]decan-3-ylamino)-3-(3-(1-(hydroxymethyl)cyclopropylsulfonyl)phenoxy)propan-2-ol]"
7,0.0334,"CCOc1ccc(-c2ccc(CN)cc2)cc1S(=O)(=O)N1CCC2(CC1)C[C@H](NC[C@H](O)COc1cccc(S(=O)(=O)C(C)(C)CO)c1)CO2 [Compound 187, 2-(3-((S)-3-((S)-8-(4′-(aminomethyl)-4-ethoxybiphenyl-3-ylsulfonyl)-1-oxa-8-azaspiro[4.5]decan-3-ylamino)-2-hydroxypropoxy)phenylsulfonyl)-2-methylpropan-1-ol]"
8,0.035,"CCOc1ccc(-c2ccc(C3(N)CC3)cc2)cc1S(=O)(=O)N1CCC2(CC1)C[C@H](NC[C@H](O)COc1cccc(S(=O)(=O)C3(CO)CC3)c1)CO2 [Compound 188, (S)-1-((S)-8-(4′-(1-aminocyclopropyl)-4-ethoxybiphenyl-3-ylsulfonyl)-1-oxa-8-azaspiro[4.5]decan-3-ylamino)-3-(3-(1-(hydroxymethyl)cyclopropylsulfonyl)phenoxy)propan-2-ol]"
9,0.0103,"NCc1ccc(-c2cccc(S(=O)(=O)N3CCC4(CC3)C[C@@H](NC[C@H](O)COc3cccc(S(=O)(=O)C5CC5)c3)CO4)c2)cc1 [Compound 189, (S)-1-((R)-8-(4′-(aminomethyl)biphenyl-3-ylsulfonyl)-1-oxa-8-azaspiro[4.5]decan-3-ylamino)-3-(3-(cyclopropylsulfonyl)phenoxy)propan-2-ol]"
